# Assays:
# rats = experiment: Effect of haloperidol and clozapine on PCP induced hypofunction: LCGU; type: in vivo, rat; details: for LCGU, Au layer I / LCGU, Au layers II, III&IV / LCGU, Au layers V & VI / LCGU, AuD layer I / LCGU, AuD layers II, III&IV / LCGU, AuD layers V & VI / LCGU, CA1 molecular layer / LCGU, CA1 pyramidal cell layer / LCGU, CA1 stratum oriens / LCGU, CA1 stratum radiatum / LCGU, CA3 molecular layer / LCGU, CA3 pyramidal cell layer / LCGU, CA3 stratum oriens / LCGU, CA3 stratum radiatum / LCGU, DLL / LCGU, MD / LCGU, PrL layer I / LCGU, PrL layers II & III / LCGU, PrL layers V & VI / LCGU, Rt / LCGU, VLL / LCGU, cochlear nucleus / LCGU, mO layer I / LCGU, mO layers II & III / LCGU, mO layers V & VI: day 29
# Source text: The effect of antipsychotics on the positive symptoms is less well studied regarding imaging studies.
# CIRL1 mRNA = experiment: Semi-quantitative RT-PCR, prefrontal cortex, chronic PCP and antipsychotic treatment; type: in vivo, rat; details: chronic PCP plus antipsychotic
# Description: FIG. 14 illustrates the level of CIRL1 mRNA present in the prefrontal cortex of rat brain following chronic PCP and antipsychotic treatment (n=12 for all groups apart from veh-veh where n=11). […] and […] (SEQ ID NOS: 25-26) were the primer sequences used to amplify this product.
# (§1) RT-PCR for specific isoforms of CIRL was then conducted in the prefrontal cortex.
# (§2) 1 ml of lysis buffer (Qiagen), including 1% β-mercaptoethanol, was added to approximately 50-100 mg of brain tissue. Tissue samples were homogenised using a ribolyser (Hybaid) with 3 bursts at 6.5 g lasting 20 seconds each. Samples were then spun at room temperature in a microfuge for 3 minutes. The supernatant was removed and re-spun for a further 3 minutes. The supernatant was decanted to a fresh tube to which an equal volume of 70% ethanol was added. The remaining RNA isolation procedure was carried out according to the manufacturer's protocol (Qiagen).
# (§3) Synthesis of cDNA was carried out according to manufacturers protocols (Life Technologies). Briefly 3-5μg of total RNA was reverse transcribed using oligo dT priming. After cDNA synthesis, samples were aliquoted and stored at −70° C. […]
# (§4) Alterations in expression levels were determined by semi-quantitative PCR. […] Samples were removed over 4 consecutive cycles, however, the first cycle to be removed sometimes varied depending on when logarithmic amplification was detected. […]
# CIRL2 variant AB mRNA = experiment: as above; type: in vivo, rat; details: chronic PCP plus antipsychotic
# Description: FIG. 15 illustrates the level of CIRL2 variant AB mRNA present in the prefrontal cortex of rat brain following chronic PCP and antipsychotic treatment (n=12 for all groups apart from veh-veh where n=11). […] and […] (SEQ ID NOS: 27-28) were the primer sequences used to amplify this product.
# as §1, §2, §3, §4
# CIRL3 variant AA mRNA = experiment: as above; type: in vivo, rat; details: chronic PCP plus antipsychotic
# Description: FIG. 16 illustrates the level of CIRL3 variant AA mRNA present in the prefrontal cortex of rat brain following chronic PCP and antipsychotic treatment (n=12 for all groups apart from veh-veh where n=11) […] and […] (SEQ ID NOS: 29-30) were the primer sequences used to amplify this product.
# as §1, §2, §3, §4
# TNFα mRNA = experiment: RT-PCR for TNFα mRNA in rat prefrontal cortex; type: in vivo; details: chronic PCP in combination with haloperidol vs chronic PCP group
# Description: Four groups of rats were treated with (a) chronic PCP, (b) chronic vehicle (control), (c) chronic PCP plus chronic clozapine (as above) or (d) chronic PCP plus chronic haloperidol (as above). The tissue was processed for RNA extraction and RT-PCP as described above, using primers specific for TNFα mRNA.
# [1] = antipsychotic in conjunction with PCP 2.58 mgkg^−1
# [2] = clozapine or haloperidol via minipump
# [3] = i.p. PCP 2.58 mgkg^−1, minipump vehicle, clozapine 20 or haloperidol 1 mgkg^−1/day
# [4] = i.p. vehicle, minipump clozapine 20 or haloperidol 1 mgkg^−1/day
smiles,measurement,setting,value
O=C(CCCN1CCC(O)(c2ccc(Cl)cc2)CC1)c1ccc(F)cc1 [haloperidol],"effect on PCP hypofunction in medial orbital cortex, prelimbic cortex, CA1, reticular nucleus of the thalamus",rats; [1],failed to modulate the hypofunction produced by PCP
same,"effect on PCP-induced hypofunction in auditory system (AuD, lateral lemniscus, cochlear nucleus)",rats; [1],reversed the PCP-induced hypofunction
same,"LCGU in auditory system (AuD, lateral lemniscus, cochlear nucleus), drug alone",rats; [2],did not produce a significant hypofunction
same,"LCGU in medial orbital cortex, prelimbic cortex, CA1, reticular nucleus of the thalamus, drug alone",rats; [2],produced a metabolic hypofunction
same,"LCGU, Au layer I",rats; [3],141 ± 8 μmol/100 g/min
same,"LCGU, Au layers II, III&IV",rats; [3],174 ± 10 μmol/100 g/min
same,"LCGU, Au layers V & VI",rats; [3],117 ± 7 μmol/100 g/min
same,"LCGU, AuD layer I",rats; [3],133 ± 7 μmol/100 g/min
same,"LCGU, AuD layers II, III&IV",rats; [3],156 ± 10 μmol/100 g/min
same,"LCGU, AuD layers V & VI",rats; [3],106 ± 6 μmol/100 g/min
same,"LCGU, CA1 molecular layer",rats; [3],97 ± 4 μmol/100 g/min
same,"LCGU, CA1 pyramidal cell layer",rats; [3],70 ± 4 μmol/100 g/min
same,"LCGU, CA1 stratum oriens",rats; [3],64 ± 4 μmol/100 g/min
same,"LCGU, CA1 stratum radiatum",rats; [3],74 ± 4 μmol/100 g/min
same,"LCGU, CA3 molecular layer",rats; [3],94 ± 6 μmol/100 g/min
same,"LCGU, CA3 pyramidal cell layer",rats; [3],74 ± 5 μmol/100 g/min
same,"LCGU, CA3 stratum oriens",rats; [3],69 ± 5 μmol/100 g/min
same,"LCGU, CA3 stratum radiatum",rats; [3],76 ± 5 μmol/100 g/min
same,"LCGU, DLL",rats; [3],107 ± 2 μmol/100 g/min
same,"LCGU, MD",rats; [3],119 ± 6 μmol/100 g/min
same,"LCGU, PrL layer I",rats; [3],115 ± 3 μmol/100 g/min
same,"LCGU, PrL layers II & III",rats; [3],134 ± 4 μmol/100 g/min
same,"LCGU, PrL layers V & VI",rats; [3],97 ± 3 μmol/100 g/min
same,"LCGU, Rt",rats; [3],80 ± 1 μmol/100 g/min
same,"LCGU, VLL",rats; [3],110 ± 3 μmol/100 g/min
same,"LCGU, cochlear nucleus",rats; [3],115 ± 2 μmol/100 g/min
same,"LCGU, mO layer I",rats; [3],105 ± 4 μmol/100 g/min
same,"LCGU, mO layers II & III",rats; [3],116 ± 4 μmol/100 g/min
same,"LCGU, mO layers V & VI",rats; [3],119 ± 4 μmol/100 g/min
same,"LCGU, Au layer I",rats; [4],142 ± 9 μmol/100 g/min
same,"LCGU, Au layers II, III&IV",rats; [4],167 ± 9 μmol/100 g/min
same,"LCGU, Au layers V & VI",rats; [4],112 ± 9 μmol/100 g/min
same,"LCGU, AuD layer I",rats; [4],139 ± 9 μmol/100 g/min
same,"LCGU, AuD layers II, III&IV",rats; [4],153 ± 9 μmol/100 g/min
same,"LCGU, AuD layers V & VI",rats; [4],108 ± 7 μmol/100 g/min
same,"LCGU, CA1 molecular layer",rats; [4],92 ± 5 μmol/100 g/min
same,"LCGU, CA1 pyramidal cell layer",rats; [4],63 ± 4 μmol/100 g/min
same,"LCGU, CA1 stratum oriens",rats; [4],59 ± 4 μmol/100 g/min
same,"LCGU, CA1 stratum radiatum",rats; [4],66 ± 4 μmol/100 g/min
same,"LCGU, CA3 molecular layer",rats; [4],90 ± 4 μmol/100 g/min
same,"LCGU, CA3 pyramidal cell layer",rats; [4],71 ± 4 μmol/100 g/min
same,"LCGU, CA3 stratum oriens",rats; [4],64 ± 4 μmol/100 g/min
same,"LCGU, CA3 stratum radiatum",rats; [4],73 ± 1 μmol/100 g/min
same,"LCGU, DLL",rats; [4],92 ± 4 μmol/100 g/min
same,"LCGU, MD",rats; [4],117 ± 5 μmol/100 g/min
same,"LCGU, PrL layer I",rats; [4],114 ± 4 μmol/100 g/min
same,"LCGU, PrL layers II & III",rats; [4],131 ± 4 μmol/100 g/min
same,"LCGU, PrL layers V & VI",rats; [4],93 ± 4 μmol/100 g/min
same,"LCGU, Rt",rats; [4],86 ± 4 μmol/100 g/min
same,"LCGU, VLL",rats; [4],106 ± 5 μmol/100 g/min
same,"LCGU, cochlear nucleus",rats; [4],99 ± 9 μmol/100 g/min
same,"LCGU, mO layer I",rats; [4],93 ± 4 μmol/100 g/min
same,"LCGU, mO layers II & III",rats; [4],106 ± 4 μmol/100 g/min
same,"LCGU, mO layers V & VI",rats; [4],102 ± 4 μmol/100 g/min
same,effect on PCP-induced reductions in the level of CIRL1 mRNA,CIRL1 mRNA,not
same,effect on PCP-induced reductions in CIRL2,CIRL2 variant AB mRNA,reversed
same,effect on PCP-induced reductions in CIRL3,CIRL3 variant AA mRNA,reversed
same,levels of TNFα in rat prefrontal cortex,TNFα mRNA,significantly different from the chronic PCP group
